In brackets after ≈: the same amount, converted by molar mass. Peptide text beside a SMILES is read from it. * marks the point of attachment. Cbz = O=C(OCc1ccccc1)*; OtBu = CC(C)(C)O*
Legend:
[1] = target: Cathepsin B (Homo sapiens, UniProt P07858)
Description: Inhibition of cathepsin B

[2] = test system: PC-3; experiment: cells; details: Homo sapiens
Description: Antiproliferative activity against human PC3 cell line

[3] = target: Cathepsin S (Homo sapiens, UniProt P25774)
Description: Inhibition of cathepsin S

[4] = physchem; details: PBS, pH 7.4
Description: Solubility in PBS at pH 7.4

[5] = in vitro; details: human, plasma
Description: Stability in human plasma after 120 mins

Cathepsin S, sequence (P25774 whole entry): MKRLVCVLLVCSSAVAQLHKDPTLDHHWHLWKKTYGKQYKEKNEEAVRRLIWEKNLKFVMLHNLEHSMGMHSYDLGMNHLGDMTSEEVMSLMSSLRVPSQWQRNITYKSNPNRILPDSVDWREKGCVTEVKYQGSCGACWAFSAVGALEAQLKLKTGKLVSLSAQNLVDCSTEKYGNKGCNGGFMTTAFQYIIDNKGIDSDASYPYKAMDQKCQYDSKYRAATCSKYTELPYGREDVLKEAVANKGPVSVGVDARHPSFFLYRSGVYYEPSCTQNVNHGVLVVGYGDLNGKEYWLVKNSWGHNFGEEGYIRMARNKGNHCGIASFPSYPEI

| IC50 [1] | IC50 [2] | IC50 [3] | solubility [4] | remaining at 2 h [5] | Ki [1] | Ki [3] | Structure (SMILES) |
| --- | --- | --- | --- | --- | --- | --- | --- |
| 77 µM | 7.5 µM | 170 µM |  |  |  |  | CC(=O)N[C@@H](CCC(=O)OC(C)(C)C)C(=O)N[C@@H](C)C(=O)N[C@H](/C=C/S(C)(=O)=O)CC(C)C |
|  | 3 µM |  |  |  |  |  | CC(C)C[C@@H](/C=C/S(C)(=O)=O)NC(=O)[C@H](CO)NC(=O)[C@H](CCC(=O)OC(C)(C)C)NC(=O)OCc1ccccc1 |
| 20 µM | 6.5 µM | 3 µM | < 10 µM | 1% |  |  | CC(C)C[C@@H](/C=C/S(C)(=O)=O)NC(=O)[C@H](C)NC(=O)[C@H](CCC(=O)OC(C)(C)C)NC(=O)OCc1ccccc1 |
|  |  |  | 13 µM (≈ 8.69 µg/mL) | 86% | 72 µM | 39 µM | Cc1ccc(S(=O)(=O)N[C@@H](CC(=O)NCC(C)(C)C)C(=O)N[C@@H](C)C(=O)N[C@@H](CC(C)C)C(=O)c2nnc(-c3ccccc3)o2)cc1 |
| > 150 µM | 2.4 µM | > 150 µM | 381 µM (≈ 235 µg/mL) | 99% |  |  | Cc1ccc(S(=O)(=O)N[C@@H](CC(=O)NCC(C)(C)C)C(=O)N[C@@H](CO)C(=O)N[C@H](/C=C/S(C)(=O)=O)CC(C)C)cc1 |
| 1.6 µM |  | 6.9 µM |  |  |  |  | CC(=O)N[C@@H](CCc1ccccc1)C(=O)N[C@@H](CC(C)C)C(=O)N[C@@H](C)C(=O)N[C@H](/C=C/S(C)(=O)=O)CC(C)C |
| 140 µM |  | 13 µM |  |  |  |  | CC[C@H](C)[C@H](NC(=O)OCc1ccccc1)C(=O)N[C@@H](CS(C)(=O)=O)C(=O)N[C@@H](C)C(=O)N[C@H](/C=C/S(C)(=O)=O)CC(C)C |
| 5.8 µM | 0.8 µM | 0.7 µM |  | 66% |  |  | CC[C@H](C)[C@H](NC(=O)OCc1ccccc1)C(=O)N[C@@H](CC(C)C)C(=O)N[C@@H](C)C(=O)N[C@H](/C=C/S(C)(=O)=O)CC(C)C |
| > 150 µM |  | 12 µM |  |  |  |  | CC(=O)N[C@@H](CCc1ccccc1)C(=O)N[C@@H](CC(C)C)C(=O)NCC(=O)N[C@H](/C=C/S(C)(=O)=O)CC(C)C |
| > 150 µM | 3000 µM | 41 µM |  | 89% |  |  | CC[C@H](C)[C@H](NC(=O)OCc1ccccc1)C(=O)N[C@@H](CCC(=O)NC(C)C)C(=O)N[C@@H](C)C(=O)N[C@H](/C=C/S(C)(=O)=O)CC(C)C |
| 0.85 µM | 3 µM | 0.15 µM |  | 100% |  |  | CC(=O)N[C@@H](CCc1ccccc1)C(=O)N[C@@H](CC(C)C)C(=O)N[C@@H](Cc1ccccc1)C(=O)N[C@H](/C=C/S(C)(=O)=O)CC(C)C |
|  |  |  |  |  | 18 µM | 0.046 µM | CC(C)C[C@@H](C#N)NC(=O)[C@H](CC(C)C)NC(=O)[C@H](CC(C)C)NC(=O)OCc1ccccc1 |
|  |  |  | < 10 µM | 72% |  |  | Cc1ccc(S(=O)(=O)N[C@@H](CC(=O)NCC(C)(C)C)C(=O)N[C@@H](C)C(=O)N[C@@H](CC(C)C)C(=O)c2nnc(-c3ccc(N(C)C)cc3)o2)cc1 |
| > 150 µM |  | 77 µM |  |  |  |  | CC(=O)N[C@@H](CCc1ccccc1)C(=O)N[C@@H](CC(C)C)C(=O)N[C@H](C)C(=O)N[C@H](/C=C/S(C)(=O)=O)CC(C)C |
|  |  |  | 37 µM (≈ 25.9 µg/mL) | 79% | 44 µM | 8.1 µM | COC[C@H](NC(=O)[C@H](CC(=O)NCC(C)(C)C)NS(=O)(=O)c1ccc(C)cc1)C(=O)N[C@@H](CC(C)C)C(=O)c1nnc(-c2ccccc2)o1 |
| 51 µM | 5000 µM | 3.3 µM | 57 µM (≈ 39.6 µg/mL) | 89% |  |  | CC[C@H](C)[C@H](NC(=O)OCc1ccccc1)C(=O)N[C@@H](CCC(=O)NC(C)(C)C)C(=O)N[C@@H](C)C(=O)N[C@H](/C=C/S(C)(=O)=O)CC(C)C |
|  | 0.5 µM |  | < 10 µM | 1% |  |  | CC(C)C[C@@H](/C=C/S(C)(=O)=O)NC(=O)[C@H](C)NC(=O)[C@H](CCC(=O)OC(C)(C)C)NC(=O)C(c1ccccc1)c1ccccc1 |
| 13 µM | 0.5 µM | 67 µM | 48 µM (≈ 28.9 µg/mL) | 7% |  |  | Cc1ccc(S(=O)(=O)N[C@@H](CCC(=O)OC(C)(C)C)C(=O)N[C@@H](C)C(=O)N[C@H](/C=C/S(C)(=O)=O)CC(C)C)cc1 |
|  |  |  | < 10 µM | 28% |  |  | Cc1cccc(S(=O)(=O)N[C@@H](CC(=O)NCC(C)(C)C)C(=O)N[C@@H](C)C(=O)N[C@@H](CC(C)C)C(=O)c2nnc(-c3ccccc3)o2)c1 |
|  | 0.55 µM |  | 20 µM (≈ 14.2 µg/mL) | 83% |  |  | CC[C@H](C)[C@H](NC(=O)OCc1ccccc1)C(=O)N[C@@H](CCC(=O)NC(C)(C)CC)C(=O)N[C@@H](C)C(=O)N[C@H](/C=C/S(C)(=O)=O)CC(C)C |

| IC50 [1] | IC50 [2] | IC50 [3] | solubility [4] | remaining at 2 h [5] | Ki [1] | Ki [3] | Structure (SMILES) |
| --- | --- | --- | --- | --- | --- | --- | --- |
| 29 µM | 2 µM | 36 µM | < 10 µM | 52% |  |  | CC[C@H](C)[C@H](NC(=O)OCc1ccccc1)C(=O)N[C@@H](CCC(=O)OC(C)(C)C)C(=O)N[C@@H](C)C(=O)N[C@H](/C=C/S(C)(=O)=O)CC(C)C |
| 27 µM |  | 9 µM |  |  |  |  | CC[C@H](C)[C@H](NC(=O)OCc1ccccc1)C(=O)N[C@@H](Cc1ccccc1)C(=O)N[C@@H](C)C(=O)N[C@H](/C=C/S(C)(=O)=O)CC(C)C |
| > 150 µM |  | 21 µM |  |  |  |  | CC(C)C[C@@H](/C=C/S(C)(=O)=O)NC(=O)CNC(=O)[C@H](CCC(=O)OC(C)(C)C)NC(=O)OCc1ccccc1 |
|  |  |  |  | 0% |  |  | CC[C@H](C)[C@H](NC(=O)OCc1ccccc1)C(=O)N[C@@H](CCC(=O)OC1CCCCC1)C(=O)N[C@@H](C)C(=O)N[C@H](/C=C/S(C)(=O)=O)CC(C)C |
| 38 µM | 0.45 µM | 35 µM |  | 83% |  |  | CC[C@H](C)[C@H](NC(=O)OCc1ccccc1)C(=O)N[C@@H](COCc1ccccc1)C(=O)N[C@@H](C)C(=O)N[C@H](/C=C/S(C)(=O)=O)CC(C)C |
|  | 0.375 µM |  |  |  |  |  | CC[C@H](C)[C@H](NC(=O)OCc1ccccc1)C(=O)N[C@@H](CCC(=O)OC(C)(C)C)C(=O)N[C@@H](C)C(=O)N[C@H](C=O)CC(C)C (Cbz-IE(OtBu)AL-aldehyde) |
|  | 3.25 µM |  |  |  |  |  | CC[C@H](C)[C@H](NC(=O)OCc1ccccc1)C(=O)N[C@@H](CC(=O)OC(C)(C)C)C(=O)N[C@@H](C)C(=O)N[C@H](/C=C/S(C)(=O)=O)CC(C)C |
|  | 0.6 µM |  |  |  | 0.012 µM |  | CC(C)C[C@@H](C=O)NC(=O)[C@H](CC(C)C)NC(=O)[C@H](CC(C)C)NC(=O)OCc1ccccc1 [MG-132] (Cbz-Leu-Leu-Leu-aldehyde) |
|  |  |  | 500 µM (≈ 307 µg/mL) | 100% |  |  | Cc1ccc(S(=O)(=O)N[C@@H](CC(=O)NCC(C)(C)C)C(=O)NC(C)(C)C(=O)N[C@H](/C=C/S(C)(=O)=O)CC(C)C)cc1 |
|  |  |  | 249 µM (≈ 160 µg/mL) | 100% |  |  | Cc1ccc(S(=O)(=O)N[C@@H](CC(=O)NCC(C)(C)C)C(=O)N[C@@H](C)C(=O)NC(C)(C)C(=O)c2nnc(-c3ccccc3)o2)cc1 |
| 41 µM | 0.6 µM | 10 µM | < 10 µM | 22% |  |  | CC[C@H](C)[C@H](NC(=O)OCc1ccccc1)C(=O)N[C@@H](CCc1ccccc1)C(=O)N[C@@H](C)C(=O)N[C@H](/C=C/S(C)(=O)=O)CC(C)C |
|  | 4 µM |  |  |  |  |  | CC(C)C[C@@H](/C=C/S(C)(=O)=O)NC(=O)[C@H](CO)NC(=O)[C@H](CCC(=O)OC(C)(C)C)NS(=O)(=O)c1ccccc1 |
| > 150 µM |  | 12 µM |  |  |  |  | CC[C@H](C)[C@H](NC(=O)OCc1ccccc1)C(=O)N[C@@H](CS(=O)(=O)Cc1ccccc1)C(=O)N[C@@H](C)C(=O)N[C@H](/C=C/S(C)(=O)=O)CC(C)C |
| 54 µM |  | 48 µM |  |  |  |  | CC[C@H](C)[C@H](NC(=O)OCc1ccccc1)C(=O)N[C@@H](CCC(N)=O)C(=O)N[C@@H](C)C(=O)N[C@H](/C=C/S(C)(=O)=O)CC(C)C |
|  | 1.75 µM |  |  |  |  |  | CC(C)C[C@@H](/C=C/S(C)(=O)=O)NC(=O)[C@H](C)NC(=O)[C@H](CCC(=O)OC(C)(C)C)NC(=O)c1ccccc1 |
| 23 µM |  | 13 µM |  |  |  |  | CC[C@H](C)[C@H](NC(=O)OCc1ccccc1)C(=O)N1CCC[C@H]1C(=O)N[C@@H](C)C(=O)N[C@H](/C=C/S(C)(=O)=O)CC(C)C |
|  |  |  | 470 µM (≈ 282 µg/mL) | 96% |  |  | Cc1ccc(S(=O)(=O)N[C@@H](CC(=O)NCC(C)(C)C)C(=O)N[C@@H](C)C(=O)N[C@H](/C=C/S(C)(=O)=O)CC(C)C)cc1 |
| 18 µM |  | 7.1 µM |  | 20% |  |  | CC[C@H](C)[C@H](NC(=O)OCc1ccccc1)C(=O)N[C@@H](CCCC(=O)OC(C)(C)C)C(=O)N[C@@H](C)C(=O)N[C@H](/C=C/S(C)(=O)=O)CC(C)C |
|  | 0.2 µM |  | < 10 µM | 90% |  |  | CC[C@H](C)[C@H](NC(=O)OCc1ccccc1)C(=O)N[C@@H](CC(=O)NCC(C)(C)C)C(=O)N[C@@H](C)C(=O)N[C@H](/C=C/S(C)(=O)=O)CC(C)C |
